Reference: publication PMC6001375, “CLERK is a novel receptor kinase required for sensing of root-active CLE peptides in Arabidopsis” (Development (Cambridge, England), 2018)
Values belong to the sequence of their own block, whether it stands above or below them.

How the values were obtained:
[1] = tested on: VISUAL-cultured wild-type cotyledons (sieve element-specific genes); assay: RNAseq transcriptomic response in the VISUAL trans-differentiation assay; format: cell-based, Arabidopsis thaliana; settings: for Number of responsive genes / Overlap of CLE26- and CLE45-responsive genes: 100 nM peptide, 2 h, q value<0.01
Description: In an attempt to isolate novel components of CLE peptide signaling in A. thaliana root protophloem development, we embarked on a combinatorial approach of transcriptomic analysis and forward genetics. Experimental investigation of developing protophloem sieve elements is inherently difficult, because they represent only 40-50 cells inside the vascular cylinder of the root meristem, and some of our genes of interest are expressed only in a subset of these. Protophloem-specific transcriptomic responses are thus strongly diluted when root tips are assayed, and attempts to identify, e.g. protophloem-specific CLE45-responsive genes have so far been unsuccessful ([Depuydt et al., 2013]). However, in a novel trans-differentiation assay [vascular cell induction culture system using Arabidopsis leaves (VISUAL)] ([Kondo et al., 2016]), in which cotyledon or leaf mesophyll cells are re-programmed to differentiate into a ∼50:50 mix of xylem vessels and sieve elements, sieve element-specific genes can be monitored in unprecedented abundance. Although these trans-differentiated sieve elements are not root protophloem, they do represent a native cell type in which sieve element regulators can be investigated successfully ([Breda et al., 2017]; [Kondo et al., 2016]). Moreover, a transcriptomic time series identified BAM3 as a central node in the early module of the trans-differentiation process ([Kondo et al., 2016]). Thus, we concluded that VISUAL could be employed to identify CLE26- and CLE45-responsive sieve element-specific genes. To achieve this, we VISUAL-cultured wild-type cotyledons and monitored BAM3 expression in a parallel cultured transgenic line that carried a BAM3::GUS reporter gene. Strong comprehensive BAM3 expression was observed after 48 h. At this time point, the wild-type sample was split in replicates and treated with control, 100 nM CLE26 or 100 nM CLE45 for 2 h. Total RNA was isolated immediately after from these samples, and cDNA was prepared for high-throughput sequencing.
Vascular tissue trans-differentiation was induced in cotyledons over 2 days as described previously ([Kondo et al., 2016]). Samples were then treated with 100 nM of CLE26 or CLE45 peptide for 2 h. Total RNA of two biological replicates was then extracted from 100 mg of fresh material, using RNeasy Plant mini kits (Qiagen). Truseq Stranded mRNA kits (Illumina) were used to prepare cDNA libraries, which were sequenced on an Illumina Hiseq 2500 instrument. Read counts and differential expression were determined with Kallisto ([Bray et al., 2016]) and Sleuth ([Pimentel et al., 2017]) software, using the TAIR10 reference transcriptome. The raw data have been deposited in the NCBI Sequence Read Archive (www.ncbi.nlm.nih.gov/sra/) under accession SRP126390.

[2] = tested on: BAM3 ectodomain with CLERK/At5g63710 ectodomains; assay: Analytical size-exclusion chromatography, BAM3 + CLERK/At5g63710 ectodomains; format: binding, Arabidopsis thaliana; settings: 50 µM peptide
Description: (§1) Isolation of recombinant proteins and analytical gel filtrations were carried out as described previously ([Hazak et al., 2017]) with small adjustments. The coding sequences for BAM1-ECD (amino acids 20-637), BAM3-ECD (30-651), PXY-ECD (30-647), NIK1-ECD (32-248), NIK2-ECD (33-248), NIK3-ECD (26-238), CLERK-ECD (28-236) and At5G63710-ECD (51-224) were amplified from Arabidopsis thaliana cDNA using PfuX7 polymerase. All ECD-coding sequences were then cloned into a modified pFAST-BAC1 vector (Geneva Biotech) by GIBSON cloning, resulting in the addition of the azurocidin signal peptide sequence to the 5′-end, and of a 2×-STREP-9×HIS tag to the 3′-end of the ECD sequences. These plasmids, after being confirmed by sequencing, were transformed into Escherichia coli DH10MultiBac (Geneva Biotech) followed by the extraction of the resulting bacmids. Transfection of the bacmids into Spodoptera frugiperda Sf9 cells with Profectin (AB Vector) was carried out to produce and amplify the respective virus. Recombinant secreted expression of the proteins was carried out by addition of virus to Trichoplusia ni Tnao38 cells to reach a viral multiplicity of 1 and incubation of the cells for 3 days. […] Concentrations of the pure proteins were assessed by measuring their absorbance at 280 nm (NanoDrop Lite; Thermo Scientific) and subsequent correction with their respective extinction coefficient. […]

[3] = tested on: BAM3 ectodomain with NIK1/2/3 ectodomains; assay: Analytical size-exclusion chromatography, BAM3 + NIK1/2/3 ectodomains; format: binding, Arabidopsis thaliana; settings: Fig. S3D; 50 µM peptide; pH 5.0
Description: as §1

[4] = tested on: root meristem protophloem; settings: BAM3 necessary; ref Depuydt et al., 2013; Hazak et al., 2017; Kang and Hardtke, 2016; cited from earlier work
Description: The endogenous CLAVATA3/EMBRYO SURROUNDING REGION (CLE) peptides of plants are secreted as propeptides and processed to yield bioactive 12-14 amino acid long ligands ([Cock and McCormick, 2001]; [Ito et al., 2006]; [Kondo et al., 2006]). The Arabidopsis thaliana genome contains 32 CLE genes, which encode 27 distinct CLE peptides ([Goad et al., 2016]; [Ito et al., 2006]; [Strabala et al., 2006]). Exogenous application of chemically synthesized CLE peptides at nanomolar concentrations frequently suppresses Arabidopsis root growth in tissue culture ([Depuydt et al., 2013]; [Fiers et al., 2005]; [ ...

Sequence: RKVPRGPDPIHN [CLE26]
- Regulation of SARK and NIK2 ([1]; 100 nM CLE26, 2 h): downregulated
- Regulation of CLERK (At2g23950) ([1]; 100 nM CLE26, 2 h, top CLE26-responsive gene): downregulated
- Number of responsive genes [1]: 167 genes
- Overlap of CLE26- and CLE45-responsive genes [1]: 36 genes

- Peptide-induced binding of CLERK and BAM3 ectodomains ([2]; gel filtration, 20 mM citrate (pH 5.0), 150 mM NaCl): did not observe CLE45-induced binding
Sequence: RRVRRGSDPIHN [CLE45]
- Number of responsive genes [1]: 97 genes
- Overlap of CLE26- and CLE45-responsive genes [1]: 36 genes
- Elution of BAM3 ectodomain with CLERK/At5g63710 ectodomains ([2]; Fig. S3A, pH 5.0): elute as monomers
- Elution of BAM3 ectodomain with NIK1/2/3 ectodomains [3]: elute as monomers
- Effect on protophloem sieve element differentiation [4]: suppression of protophloem sieve element differentiation
